Where “and” joins values, the source holds several entries; their conditions need not be identical. Equal entries are not always repeated.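 Interpolation was linear, between the two tested concentrations surrounding the appropriate level; five concentrations were tested over 48 hours in 96-well plates. GI50 = concentration required for 50% inhibition of growth. At the TGI there is no net growth.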
Tests used:
Experiment in all cases: growth of human tumour cells (NCI), 48 h
[1] = system: RXF 393 renal
[2] = system: UACC-62 melanoma
[3] = system: COLO 205 colon
[4] = system: TK-10 renal
[5] = system: CCRF-CEM leukemia
[6] = system: CAKI-1 renal
[7] = system: SF-539 CNS
[8] = system: HCT-116 colon
[9] = system: A498 renal
[10] = system: LOX IMVI melanoma

| SMILES | GI50 [1] [µM] | TGI [1] [µM] | GI50 [2] [µM] | TGI [2] [µM] | GI50 [3] [µM] | TGI [3] [µM] | GI50 [4] | TGI [4] [µM] | GI50 [5] [µM] | TGI [5] [µM] | GI50 [6] [µM] | TGI [6] [µM] | GI50 [7] [µM] | TGI [7] [µM] | GI50 [8] [µM] | TGI [8] [µM] | GI50 [9] [µM] | TGI [9] [µM] | GI50 [10] [µM] | TGI [10] [µM] |
| --- | --- | --- | --- | --- | --- | --- | --- | --- | --- | --- | --- | --- | --- | --- | --- | --- | --- | --- | --- | --- |
| COC1C(O)CC(OC2CC(OC3CC(O[C@@H]4C(=O)c5c(cc6cc(OC7CC(OC8CC(O)C(O)C(C)O8)C(O)C(C)O7)c(C)c(O)c6c5O)CC4[C@H](OC)[C@@H](O)C(C)=O)OC(C)C3O)OC(C)C2O)OC1C (stereo partly specified) | 0.0152 | 0.364 | 0.00977 | 0.036 | 0.0113 | 0.0639 | 0.0257 µM | > 33.3 | 0.0233 | > 33.3 | 0.749 | > 33.3 | 0.00902 | 0.463 | 0.00621 | > 33.3 | 0.0214 | 0.103 | 0.0067 | 0.0325 |
| COc1ccccc1N1CCN(CCCOc2ccc(C(=O)/C=C3/C(=O)Nc4ccccc43)cc2)CC1 | 11.2 | 27.5 | 11.9 | 28.4 | 12.7 | 33.2 | 12.3 µM | > 67.7 | 3.07 | > 43.2 | 15.5 | > 62.8 | 15.8 | 40.4 | 5.75 | 23.5 | 19.3 | 70.5 | 11.8 | 26.4 |
| CN1CCN(Cc2ccc(NC(=O)c3cccc(C#Cc4c(N)ncc5ccc(F)cc45)c3)cc2C(F)(F)F)CC1 | 0.697 | 1.4 | 0.698 | 1.4 | 0.737 | 1.66 | 1.14 µM | 2.35 | 0.989 | 2.58 | 0.727 | 1.43 | 0.548 | 1.19 | 0.816 | 1.61 | 0.578 | 1.26 | 0.597 | 1.25 |
| COc1ccc(C[C@H]2NC[C@H](O)[C@H]2OC(C)=O)cc1 | – | 0.399 | – | 0.225 | – | 0.0256 | – | 0.397 | – | 0.863 | – | 0.06 | – | 0.14 | – | 0.146 | – | 0.32 | – | 0.0409 |
| N#Cc1ccc(NC(=O)Nc2nc3ccc(OC(F)(F)F)cc3s2)cc1 | 1.87 | 7.39 | 0.737 | 3.87 | 1.68 | 3.9 | 1.22 µM | 7.03 | 1.51 | > 100 | 1.59 | 9.12 | 2.9 | 10.1 | 0.552 | 2.87 | 0.473 | 4.41 | 1.47 | 4.67 |
| CC(C)=CCC/C(C)=C/CC/C(C)=C/C1CCC(=O)C1(C)C (stereo unspecified) | – | 37.5 | – | 50.6 | – | 30.8 | – | > 100 | – | 35.4 | – | 46.8 | – | 38.9 | – | 30.7 | – | 36.9 | – | 28.9 |
| CC(C)Cc1ccc(C(C)/C=C2\CCC(CN3CCCCC3)C2=O)cc1 (stereo unspecified) | – | 5.73 | – | 24.2 | – | 15.6 | – | 8.95 | – | 5.51 | – | 20.4 | – | 11.4 | – | 12.7 | – | 28.2 | – | 3.99 |
| CCCCCCC/C=C1\CCC(CN(C)C)C1=O (stereo unspecified) | – | 12.1 | – | 28.7 | – | 25.5 | – | 16.5 | – | 13 | – | 31.6 | – | 32.7 | – | 22.3 | – | 35.6 | – | 15 |
| CC(=O)Oc1cc(Cl)c(OC(C)=O)c2c(OC(C)=O)c(C)c(O[Si](C)(C)C(C)(C)C)cc12 | – | 11.2 | – | – | – | 32.5 | – | 17.6 | – | 13.5 | – | 30.7 | – | 27.7 | – | 13.6 | – | 4.77 | – | 12.9 |
| CSC1SCC2C(=O)N(C)C(C(C)C)C(=O)OCC(NC(=O)c3cnc4ccccc4n3)C(=O)NC(C)C(=O)N(C)C1C(=O)N(C)C(C(C)C)C(=O)OCC(NC(=O)c1cnc3ccccc3n1)C(=O)NC(C)C(=O)N2C (stereo unspecified) | < 0.001 | – | < 0.001 | – | < 0.001 | – | < 0.001 µM and 0.0075 µM | – | < 0.001 | – | < 0.001 | – | < 0.001 | – | – | – | < 0.001 | – | < 0.001 | – |
| CCCCCCCCCCCCC(NC(C)=O)(C(=O)OCC)C(=O)OCC | 13.7 | 27 | 4.88 | 19.6 | 12.8 | 26.3 | – | – | 16.8 | 41.6 | 10.6 | 27.4 | 16 | 33.1 | 5.83 | 19.2 | 13.5 | 26.6 | 11.8 | 25.2 |
